# How the values were obtained:
# Assay type in all cases: physicochemical
# [1] = DVS (dynamic vapor sorption) hygroscopicity characterization; conditions: for mass increase under normal conditions: 25° C. and 60% RH; for hygroscopicity according to guidelines for drug hygroscopicity test in China Pharmacopoeia (2015 edition) / mass increase as the humidity increases: 25° C., 10% RH to 80% RH; for mass increase under accelerated test conditions: 70% RH; for mass increase under extreme conditions: 90% RH; for desorption process and adsorption process of the sample: humidity change from 0% to 95%
# Protocol: DVS refers to dynamic vapor sorption and is determined using SMS DVS Advantage at 25° C., with the humidity change of 50%-95%-0%-95%-50% and the stepping of 10% (5% for the last step) (the specific humidity range is determined in accordance with the corresponding plot, and the methods listed herein are those most commonly used), and the standard for determination is as follow: dm/dt is not more than 0.02%, and Tmax is not more than 360 min.
# [2] = Long-term and accelerated stability experiments (3 months)
# Protocol: The long-term (25° C., 60% RH) and accelerated (40° C., 75% RH) stability of crystal form A and crystal form F of the compound of formula (I) were investigated for 3 months.
# [3] = Influencing factor experiments (light, high temperature, high humidity, 30 days)
# Protocol: Crystal forms A, B, D and F of the compound of formula (I) were spread and left open to the air, and under conditions of high temperature (40° C. and 60° C.), light (4500 Lux), high humidity (RH 75% and RH 90%), the stability thereof were investigated for a period of 30 days.
smiles,measurement,setting,value
"CCC(=O)c1ccc(Cl)cc1-c1cc(=O)n([C@@H](CCOC(C)(C)C)C(=O)Nc2ccc(C(=O)O)cc2)cc1OC [Crystal form A, (S)-4-(4-(tert-butoxy)-2-(4-(5-chloro-2-propionylphenyl)-5-methoxy-2-oxopyridin-1(2H)-yl)butanamido)benzoic acid]",mass increase under normal conditions,[1],about 1.156%
same,hygroscopicity according to guidelines for drug hygroscopicity test in China Pharmacopoeia (2015 edition),[1],slightly hygroscopic (less than 2% but not less than 0.2%)
same,mass increase as the humidity increases,[1],about 1.781%
same,mass increase under accelerated test conditions,[1],about 1.479%
same,mass increase under extreme conditions,[1],about 2.199%
same,crystal form before and after DVS detection (XRPD comparison),[1],unchanged
same,desorption process and adsorption process of the sample,[1],basically coincide
same,% Purity 1 month,"[2]; 25° C., 60% RH",98.80%
same,% Purity 2 months,"[2]; 25° C., 60% RH",98.77%
same,% Purity 3 months,"[2]; 25° C., 60% RH",98.76%
same,% Purity Initial condition,"[2]; 25° C., 60% RH",98.79%
same,% Purity 1 month,"[2]; 40° C., 75% RH",98.79%
same,% Purity 2 months,"[2]; 40° C., 75% RH",98.75%
same,% Purity 3 months,"[2]; 40° C., 75% RH",98.74%
same,% Purity Initial condition,"[2]; 40° C., 75% RH",98.79%
same,physical and chemical stability (conclusion),"[2]; long-term (25° C., 60% RH) and accelerated (40° C., 75% RH) conditions for 3 months",good physical and chemical stability
same,% Purity,"[3]; 40° C., 5 days",98.74%
same,Color and trait,"[3]; 40° C., 5 days",Yellow solid
same,% Purity,"[3]; 40° C., 10 days",98.70%
same,Color and trait,"[3]; 40° C., 10 days",Yellow solid
same,% Purity,"[3]; 40° C., 30 days",98.48%
same,Color and trait,"[3]; 40° C., 30 days",Yellow solid
same,% Purity,"[3]; 60° C., 5 days",98.73%
same,Color and trait,"[3]; 60° C., 5 days",Yellow solid
same,% Purity,"[3]; 60° C., 10 days",98.68%
same,Color and trait,"[3]; 60° C., 10 days",Yellow solid
same,% Purity,"[3]; 60° C., 30 days",98.50%
same,Color and trait,"[3]; 60° C., 30 days",Yellow solid
same,% Purity,"[3]; 4500 Lux, 5 days",98.74%
same,Color and trait,"[3]; 4500 Lux, 5 days",Yellow solid
same,% Purity,"[3]; 4500 Lux, 10 days",98.74%
same,Color and trait,"[3]; 4500 Lux, 10 days",Yellow solid
same,% Purity,"[3]; 4500 Lux, 30 days",98.75%
same,Color and trait,"[3]; 4500 Lux, 30 days",Yellow solid
same,% Purity,"[3]; Initial condition, day 0",98.76%
same,Color and trait,"[3]; Initial condition, day 0",Yellow solid
same,% Purity,"[3]; RH 75%, 5 days",98.76%
same,% Weight gain,"[3]; RH 75%, 5 days",1.15%
same,Color and trait,"[3]; RH 75%, 5 days",Yellow solid
same,% Purity,"[3]; RH 75%, 10 days",98.76%
same,% Weight gain,"[3]; RH 75%, 10 days",3.30%
same,Color and trait,"[3]; RH 75%, 10 days",Yellow solid
same,% Purity,"[3]; RH 75%, 30 days",98.76%
same,% Weight gain,"[3]; RH 75%, 30 days",5.85%
same,Color and trait,"[3]; RH 75%, 30 days",Yellow solid
same,% Purity,"[3]; RH 90%, 5 days",98.75%
same,% Weight gain,"[3]; RH 90%, 5 days",3.18%
same,Color and trait,"[3]; RH 90%, 5 days",Yellow solid
same,% Purity,"[3]; RH 90%, 10 days",98.75%
same,% Weight gain,"[3]; RH 90%, 10 days",8.14%
same,Color and trait,"[3]; RH 90%, 10 days",Yellow solid
same,% Purity,"[3]; RH 90%, 30 days",98.76%
same,% Weight gain,"[3]; RH 90%, 30 days",11.37%
same,Color and trait,"[3]; RH 90%, 30 days",Yellow solid
same,physical and chemical stability (conclusion),"[3]; light, 40° C., 60° C., 75% RH or 90% RH for 30 days",good physical and chemical stability
"CCC(=O)c1ccc(Cl)cc1-c1cc(=O)n([C@@H](CCOC(C)(C)C)C(=O)Nc2ccc(C(=O)O)cc2)cc1OC [Crystal form B, (S)-4-(4-(tert-butoxy)-2-(4-(5-chloro-2-propionylphenyl)-5-methoxy-2-oxopyridin-1(2H)-yl)butanamido)benzoic acid]",mass increase under normal conditions,[1],about 1.155%
same,hygroscopicity according to guidelines for drug hygroscopicity test in China Pharmacopoeia (2015 edition),[1],slightly hygroscopic (less than 2% but not less than 0.2%)
same,mass increase as the humidity increases,[1],about 1.968%
same,mass increase under accelerated test conditions,[1],about 1.530%
same,mass increase under extreme conditions,[1],about 3.963%
same,crystal form before and after DVS detection (XRPD comparison),[1],change to crystal form A
same,desorption process and adsorption process of the sample,[1],basically coincide
same,% Purity,"[3]; 40° C., 15 days",98.99%
same,Color and trait,"[3]; 40° C., 15 days",Light yellow
same,% Purity,"[3]; 40° C., 30 days",98.57%
same,Color and trait,"[3]; 40° C., 30 days",Light yellow
same,% Purity,"[3]; 60° C., 15 days",99.10%
same,Color and trait,"[3]; 60° C., 15 days",Light yellow
same,% Purity,"[3]; 60° C., 30 days",98.60%
same,Color and trait,"[3]; 60° C., 30 days",Light yellow
same,% Purity,"[3]; 4500 Lux, 15 days",99.01%
same,Color and trait,"[3]; 4500 Lux, 15 days",Yellow solid
same,% Purity,"[3]; 4500 Lux, 30 days",98.71%
same,Color and trait,"[3]; 4500 Lux, 30 days",Yellow solid
same,% Purity,"[3]; Initial condition, day 0",99.65%
same,Color and trait,"[3]; Initial condition, day 0",Light yellow
same,% Purity,"[3]; RH 75%, 15 days",99.62%
same,% Weight gain,"[3]; RH 75%, 15 days",6.76%
same,Color and trait,"[3]; RH 75%, 15 days",Light yellow
same,% Purity,"[3]; RH 75%, 30 days",99.59%
same,% Weight gain,"[3]; RH 75%, 30 days",8.34%
same,Color and trait,"[3]; RH 75%, 30 days",Light yellow
same,% Purity,"[3]; RH 90%, 15 days",99.64%
same,% Weight gain,"[3]; RH 90%, 15 days",14.89%
same,Color and trait,"[3]; RH 90%, 15 days",Light yellow
same,% Purity,"[3]; RH 90%, 30 days",99.56%
same,% Weight gain,"[3]; RH 90%, 30 days",19.11%
same,Color and trait,"[3]; RH 90%, 30 days",Light yellow
